# In patent US10335423B2, “Inhibition of HIV infection through chemoprophylaxis” (THE UNITED STATES OF AMERICA, as represented by the …, priority 2006, dated 2019):
# Counter-ions that a name gives are not always drawn. Like-named read-outs stand apart in the source and are kept apart here.
# Legend:
# [1] = system: simian immunodeficiency virus (SIV); settings: monkey models challenged with SIV; cited from earlier work
# SHIV = settings: oral daily dosing, dose equivalent to that used in humans; cited from earlier work
# SHIVSF162P3 [2] = assay: Repeated weekly rectal SHIV162p3 exposures under once daily prophylaxis (survival curves); format: in vivo, rhesus macaques
# Method: A chimeric envelope SHIVSF162P3 isolate is used to inoculate the macaques. SHIVSF162P3 is a construct that contains the tat, rev, and env coding regions of HIV-1SF162 in a background of SIVmac239. This isolate was obtained from the National Institutes of Health (NIH) AIDS Research and Reference Reagent Program.^7,8 Virus exposures are performed 2 hours after drug treatment, and involved non-traumatic inoculation of 1 mL of SHIVSF162P3 (10 TCID50 or […]) into the rectal vault via a sterile gastric feeding tube.^9 Anesthetized macaques remained recumbent for at least 15 min after each intra-rectal inoculation.
# The exact log-rank test is used for a discrete-time survival analysis of the treatment and control groups, with use of the number of inoculations as the time variable. The Cox proportional hazards model is used to estimate the relative hazard ratio (HR). Percent protection is calculated from the HR value using the formula: (1-1/HR)×100. All statistical analyses for calculation of the efficacy of the different interventions are performed using SAS software (version 9.1; SAS Institute) and StatXact software (version 6.3; Cytel).
# Macaques are exposed rectally once weekly for up to 14 weeks to SHIV162p3 which contains an R5 tropic HIV-1 envelope that resembles naturally transmitted viruses. The SHIV162p3 challenge dose is 10 TCID50 or 7.6×10^5 RNA copies which is similar to HIV-1 RNA levels in semen during acute infection in humans.^11 Virus exposures are terminated when a macaque became infected. […] Three prophylactic drug treatments of increasing drug potency are each given once daily to a group of six macaques. Animals in Group 1 were treated subcutaneously with 20 mg/kg of FTC alone. Animals in Group 2 received orally a combination of FTC (20 mg/kg) and TDF (22 mg/kg). […] The rate of infection in each group is compared with that seen in 18 untreated control macaques (9 real time and 9 historical controls).
# All treated macaques received the corresponding drugs 7 to 9 days prior to the first virus inoculation to achieve steady-state plasma levels. Treated animals that remained uninfected during the 14 challenges received 28 days of post-exposure prophylaxis after the last challenge. Protection was defined as absence of persistent viremia and seroconversion.
# Data with TDF (20 mg/kg) is also provided for comparison.
# [3] = human, in vivo, cited from earlier work
# SHIVSF162P3 [4] = assay: SHIV plasma viral load (real-time PCR) in breakthrough infections; format: in vivo, rhesus macaques
# Method: Plasma RNA is quantified using a real-time PCR assay as previously described.^5 This assay has a sensitivity of detection of 50 RNA copies/ml or 10 copies of a pVp1 plasmid carrying the SIVmac239 RT gene. HIV-1 RNA is extracted from 1 mL of plasma using the NucliSens extraction method (bioMerieux). A known amount of virus particles (3×10^5) from an HIV-1 CM240 virus stock is added to each sample prior to extraction to control for the efficiency of extraction. Reverse transcription is performed using 10 microliters (μl) of extracted RNA and the 2-step TaqMan Gold reverse-transcriptase (RT)—PCR kit (Applied Biosystems) according to the manufacturer's instructions. PCR reactions are performed as described using an ABI 7000 […] (Applied Biosystems). Virus loads are calculated from a standard curve generated with known amount of virus particles. All primers and probes used for SIVmac239 and HIV-1 CM240 have been reported elsewhere.^5 HIV-1 CM240 is obtained from the National Institutes of Health (NIH) AIDS Research and Reference Reagent Program.
# Since the dynamics of breakthrough infections that occur during inventive prophylaxis and drug resistance emergence are unknown, the 6 infected animals from Groups 1 and 2 are followed under continued drug treatment. FIG. 3 compares the virus load kinetics in the 6 breakthrough infections with those in 12 untreated macaques that had sufficient follow-up samples. The mean peak viremia in the 6 treated macaques was 4.9±0.5 log10 RNA copies/ml, 2.0 log10 lower than in untreated controls (6.9±0.3 log10 RNA). […] In contrast, all 12 untreated macaques had detectable virus loads during a median follow-up period of 7 weeks (range=5-36 weeks). The arrow in FIG. 4 denotes the first detectable antibody response. Grey circles indicate detectable M184V/I mutation; wild type sequences are shown in black full circles. Open circles are provided for data points not genotyped.
# in vivo = settings: rhesus monkey
# Method: A dose of 22 mg/kg of tenofovir disoproxil fumarate (TDF) is given orally and 20 mg/kg of emtricitabine (FTC) given orally or subcutaneously to one group of adult male rhesus macaques.
structure (smiles),measurement,setting,value
C[C@H](Cn1cnc2c(N)ncnc21)OCP(=O)(O)O [tenofovir],prophylactic activity,[1],Prophylactic activity has been demonstrated
same,protection against rectal SHIV transmission,SHIV,partially protective
"Nc1nc(=O)n([C@@H]2CS[C@H](CO)O2)cc1F [FTC, emtricitabine]",exposure with first detectable viral RNA,SHIVSF162P3 [2]; animal AG-07,13
same,exposure with first detectable viral RNA,SHIVSF162P3 [2]; animal AG-46,10
same,exposure with first detectable viral RNA,SHIVSF162P3 [2]; animal AG-80,5
same,exposure with first detectable viral RNA,SHIVSF162P3 [2]; animal AH-04,12
same,Cox proportional hazard ratio [HR] (fold reduction of infection compared to controls),SHIVSF162P3 [2]; compared to 18 untreated controls,3.8
same,infection / survival analysis compared to untreated controls,SHIVSF162P3 [2]; compared to untreated controls,statistically significant difference
same,macaques that became infected,"SHIVSF162P3 [2]; of 6 macaques per group, once daily treatment, up to 14 rectal exposures",4
same,macaques remaining uninfected / protected after 14 exposures,"SHIVSF162P3 [2]; of 6 macaques per group, once daily treatment, weekly rectal SHIV162p3",2
same,protection compared with TDF alone,"SHIVSF162P3 [2]; versus 4 animals previously receiving TDF, difference not statistically significant (p=0.5)",higher than that previously seen in 4 animals receiving TDF
same,AUC,"[3]; po, 200 mg",10000 ± 3120 ng·h/mL
same,time after the peak in viremia to undetectable virus loads,SHIVSF162P3 [4]; animal AG-07,7 weeks
same,time after the peak in viremia to undetectable virus loads,SHIVSF162P3 [4]; animal AG-80,3 weeks
same,time after the peak in viremia to undetectable virus loads,SHIVSF162P3 [4]; animal AH-04,4 weeks
same,viremia during follow-up,"SHIVSF162P3 [4]; for up to 20 weeks, animals AG-80, AH-04, AG-07, AG-81",consistently low or undetectable
same,AUC,"in vivo; male, 20 mg/kg",11000 ng·h/mL
same,plasma FTC levels after subcutaneous administration,in vivo,comparable to those achieved during oral administration
"CC(C)OC(=O)OCOP(=O)(CO[C@H](C)Cn1cnc2c(N)ncnc21)OCOC(=O)OC(C)C [TDF, tenofovir disoproxil fumarate]",AUC,[3]; 300 mg,5020 ng·h/mL
same,area-under the plasma concentration-time curve over a 24 h interval (AUC),"in vivo; male, po, 22 mg/kg",4490 ng·h/mL
